Experimental data published in patent publication EP4768487A1, “FUSED LACTAM RING COMPOUND AND USE THEREOF” (Chengdu Zenitar Biomedical Technology Co., Ltd., priority 2023, dated 2025).

Assays:
[1] = target: T1, hERG potassium ion channel (Homo sapiens, UniProt Q12809); experiment: Inhibition of hERG potassium ion channel (Qpatch, CHO cells stably expressing hERG); assay type: cell-based; details: for inhibitory effects on the hERG potassium ion channel (in words): conclusion of Table 17; for inhibition at 2.5 min, 20 µM: human, CHO cells stably expressing hERG, read-out: Inhibition rate at 20 µM
T1 construct: expressed in transfected cells; host or cells: CHO cells
Description: Cell culture and treatment: CHO cells stably expressing hERG were cultured in a cell culture flask and incubated in an incubator with 5% CO2 at 37 °C. When the cell density reached 60%-80%, the cell culture medium was removed by pipetting. The cells were washed once with PBS, and then Detachin was added for detachment. After complete detachment, a culture medium was added for neutralization. The cells were then centrifuged, and the supernatant was removed by pipetting. A culture medium was further added for resuspension, and the cell density was adjusted to (2-5) × 10^6 cells/mL for later use.
Compound preparation: The compound stock solution was diluted with 100% DMSO. Specifically, 10 µL of the compound stock solution was added to 20 µL of DMSO, followed by a 3-fold serial dilution to obtain 6 concentrations. 4 µL of each of the 6 compound solutions at different concentrations was taken and added to 396 µL of an extracellular fluid, resulting in a 100-fold dilution to obtain 6 intermediate concentrations. Then, 80 µL of each of the 6 intermediate-concentration compound solutions was taken and added to 320 µL of an extracellular fluid, resulting in a 5-fold dilution to achieve the final test concentrations. The highest test concentration was 40 µM. […] DMSO at this concentration has no effect on the hERG potassium channel. During the compound preparation, the entire dilution process was completed by a Bravo instrument.
Electrophysiological recording process: The single-cell high-impedance sealing and whole-cell mode formation processes were all completed automatically by a Qpatch instrument. After achieving the whole-cell recording mode, the cells were clamped at -80 mV. Before a 5-second +40 mV depolarizing stimulus was applied, a 50-millisecond -50 mV prepulse voltage was first applied. The potential was then repolarized to -50 mV and held for 5 s, and finally returned to -80 mV. This voltage stimulation was applied every 15 s. After 2 min of recording, the extracellular fluid was administered, followed by recording for 5 min. Then, the compound administration process began, starting from the lowest test compound concentration. Each test concentration was applied for 2.5 min. After all the concentrations were applied consecutively, the positive control compound, 3 µM Cisapride, was administered. At least 3 cells (n ≥ 3) were tested for each concentration.
Data processing: Data analysis and processing were performed using GraphPad Prism 5.0 and Excel software. The IC50 of the compound was calculated using GraphPad Prism 5 software by equation fitting as follows: Y = Bottom + (Top−Bottom)/(1+10^(∧)((LogIC50−X)*HillSLope)) [formula] where X is the Log value of the test concentration of the test sample, Y is the inhibition percentage at the corresponding concentration, and Bottom and Top are the minimum and maximum inhibition percentages, respectively. Table 17. Results of inhibition of hERG potassium ion channel by compounds

[2] = test system: BRCA wild-type DLD-1 cells; experiment: Anti-proliferative activity against cells (CCK8): DLD-1; assay type: cell-based; details: Homo sapiens, 72 h + 96 h culture
In short: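 DLD-1 cells (1000/well) in RPMI-1640 with 10% FBS, treated 24 h after plating with PARPi at 0, 1 or 10 µM final. Cultured 72 h, medium exchanged with re-added PARPi, then a further 96 h; read-out by CCK8.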

[3] = test system: CD34+ hematopoietic stem and progenitor cells (hmPB34-P-SC); experiment: Hematological toxicity assay (CellTiter-Glo 2.0); assay type: cell-based; details: 120 h; 5 days of culture
Description: The next day, the cells were resuspended and seeded in a 96-well plate at a concentration of 1000 cells/well, and meanwhile, different concentrations of the drug were added for treatment, with 3 replicate wells set for each concentration. After 5 days of culture, the number of viable cells in each well was determined using a CellTiter-Glo 2.0 kit, followed by detection by a microplate reader.

[4] = Pharmacokinetic evaluation in Balb/c mice; assay type: in vivo; details: 1mg/kg, PO; for AUC(0-t) / Cmax / half-life: male, mouse, plasma
Description: Experimental objective: To understand the pharmacokinetic profiles of the compounds. Experimental basis: Technical guidelines for non-clinical pharmacokinetic studies of chemical drugs, 2014.
Experimental scheme: The pharmacokinetic profiles of the compounds were investigated by intravenous administration (1 mg·kg^-1) and intragastric administration (1 mg·kg^-1) in Balb/c mice.
Sample preparation: About 0.2 mg of the compound was weighed out and dissolved in 10 µL of DMSO, and then a sodium chloride solution for injection was added to prepare a 0.1 mg·mL^-1 compound solution for later administration.
Three of the mice were subjected to intravenous administration (IV) at 1 mg·kg^-1, while the other three were subjected to intragastric administration (PO) at 1 mg·kg^-1. About 0.05 mL of blood was collected at 5 min, 15 min, 30 min, 1 h, 2 h, 4 h, 6 h, 8 h, 10 h, 24 h, and 48 h after administration. The collected blood was centrifuged at 3500 rpm for 15 min. The supernatant plasma was then collected and cryopreserved at -40 °C for later analysis. The plasma concentration was quantitatively analyzed using the LC-MS/MS method, and pharmacokinetic parameters such as […] (Cmax), area under plasma concentration-time curve (AUC(0-t)), half-life (T1/2), clearance rate (CL), tissue distribution (Vdss), and bioavailability (F) were calculated. Table 18. Results of pharmacokinetic test of compounds in Balb/c mice

[5] = test system: BRCA-mutated MDA-MB-436 cells; experiment: Anti-proliferative activity against cells (CCK8): MDA-MB-436; assay type: cell-based; details: Homo sapiens, 72 h + 96 h culture

T1 sequence (Q12809 whole entry): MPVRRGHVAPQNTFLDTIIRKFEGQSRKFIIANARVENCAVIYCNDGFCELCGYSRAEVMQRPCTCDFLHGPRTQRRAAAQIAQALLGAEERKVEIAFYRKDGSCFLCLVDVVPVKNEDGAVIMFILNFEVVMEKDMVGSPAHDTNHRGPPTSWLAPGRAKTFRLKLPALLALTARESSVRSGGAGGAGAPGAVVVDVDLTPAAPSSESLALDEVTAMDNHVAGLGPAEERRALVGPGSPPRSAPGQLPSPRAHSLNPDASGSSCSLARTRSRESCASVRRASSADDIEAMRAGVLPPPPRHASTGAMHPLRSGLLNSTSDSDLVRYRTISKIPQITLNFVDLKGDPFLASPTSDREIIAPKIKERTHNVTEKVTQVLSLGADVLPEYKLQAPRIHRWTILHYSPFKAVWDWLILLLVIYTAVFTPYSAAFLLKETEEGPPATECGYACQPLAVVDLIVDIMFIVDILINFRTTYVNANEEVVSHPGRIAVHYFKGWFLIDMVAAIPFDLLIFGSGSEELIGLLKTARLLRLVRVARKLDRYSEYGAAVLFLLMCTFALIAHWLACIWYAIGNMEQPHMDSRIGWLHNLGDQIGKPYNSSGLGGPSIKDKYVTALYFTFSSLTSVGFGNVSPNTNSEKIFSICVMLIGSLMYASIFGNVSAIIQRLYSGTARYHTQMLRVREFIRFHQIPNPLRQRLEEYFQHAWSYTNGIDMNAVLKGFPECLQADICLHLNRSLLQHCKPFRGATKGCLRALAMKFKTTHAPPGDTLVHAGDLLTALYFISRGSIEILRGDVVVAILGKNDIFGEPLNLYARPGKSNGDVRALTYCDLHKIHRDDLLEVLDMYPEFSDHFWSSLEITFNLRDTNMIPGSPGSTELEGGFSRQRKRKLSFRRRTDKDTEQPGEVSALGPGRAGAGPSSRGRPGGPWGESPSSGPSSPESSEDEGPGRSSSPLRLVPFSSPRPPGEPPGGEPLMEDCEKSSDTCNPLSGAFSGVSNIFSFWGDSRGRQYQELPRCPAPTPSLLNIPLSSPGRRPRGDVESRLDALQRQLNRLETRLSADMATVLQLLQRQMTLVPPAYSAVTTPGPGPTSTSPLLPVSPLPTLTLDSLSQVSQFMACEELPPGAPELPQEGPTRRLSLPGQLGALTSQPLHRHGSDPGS

Structure (SMILES) | inhibitory effects on the hERG potassium ion channel (in words) [1] | inhibition at 2.5 min, 20 µM [1] [%] | IC50 [2] [µM] | IC50 [3] [µM] | CL [4] [L/h/kg] | Vdss [4] [L/kg] | AUC(0-t) [4] [µg·h/mL] | Cmax [4] [µg/mL] | half-life [4] [h] | IC50 [5] [µM]
CNC(=O)c1ccc(N2CCN(C[C@H]3CCc4nc(C)c(=O)[nH]c4C3)CC2)c(F)n1 [Example 45, (S)-6-Fluoro-N-methyl-5-(4-((2-methyl-3-oxo-3,4,5,6,7,8-hexahydroquinoxaline-6-yl)methyl)piperazin-1-yl)picolinamide] | Conclusion: Compounds 2, 6, 45, 62, 67, 74, 83, 87, etc., of the present disclosure exhibited relatively weak inhibitory effects on the hERG potassium ion channel. | 13 | > 1 | 0.331 | 0.59 | 6.85 | 1.54 | 0.359 | 7.98 | –
CCc1cc2c([nH]c1=O)CC(CN1CCN(c3ccc(C(=O)NC)nc3F)CC1)OC2 (stereo not shown) [Compound 2, 5-(4-((3-Ethyl-2-oxo-1,5,7,8-tetrahydro-2H-pyrano[4,3-b]pyridin-7-yl)methyl)piperazin-1-yl)-6-fluoro-N-methyl picolinamide] | Conclusion: Compounds 2, 6, 45, 62, 67, 74, 83, 87, etc., of the present disclosure exhibited relatively weak inhibitory effects on the hERG potassium ion channel. | 6.7 | > 1 | 0.738 | 0.19 | 0.38 | 5.4 | 2.35 | 1.36 | 0.00025
CNC(=O)c1ccc(N2CCN(CC3Cc4[nH]c(=O)c(C)cc4CO3)CC2)c(Cl)n1 (stereo not shown) [Example 74, 6-Chloro-N-methyl-5-(4-((3-methyl-2-oxo-1,5,7,8-tetrahydro-2H-pyrano[4,3-b]pyridin-7-yl)methyl)piperazin-1-yl)picolinamide] | Conclusion: Compounds 2, 6, 45, 62, 67, 74, 83, 87, etc., of the present disclosure exhibited relatively weak inhibitory effects on the hERG potassium ion channel. | 17.7 | > 1 | > 1 | – | 1.06 | 17.1 | 2.35 | 2.52 | 0.007
